How the values were obtained:
[1] = target: T1, PI3Kα (wild-type), P110/P85α (Homo sapiens, UniProt P42336); assay: PI3 Kinase TR-FRET assay, PI3Kα (wild-type); type: biochemical
T1 construct: made in house; host or cells: SF9 insect cells
How it was run: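 Sf9-expressed His-purified P110/P85α (5 ng) preincubated 60 min RT with compound and PIP2 in buffer with 40 mM MgCl2, 5 mM DTT; reaction started with ATP (PIP2 and ATP both 10 μM), 30 min RT. PIP3 detected by TR-FRET displacement, 665/615 nm ratio; IC50 from dose-response curves.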

[2] = tested on: pAKT(5473) (phosphorylated at serine 473), PC3 cells; assay: In-cell Western assay, pAKT(5473) in PC3 cells; type: cell-based; details: Homo sapiens, PC-3, In-cell Western, read-out: pAkt-S473
Description: Cells from human prostate cancer cell line PC3 (American Type Culture Collection (ATCC), Manassas, Va. 20108 USA) were seeded at an optimal density of 22,000 cell/well in 96-well plates containing Ham's F12K medium (90 μL) and incubated overnight. The compound dilutions were carried out in 100% DMSO followed by a dilution in the medium. Test compounds were added in serial dilutions to the wells and incubated for 2 h. The cells were washed and fixed with 4% paraformaldehyde. After incubation at room temperature for 1 h in the dark, blocking was done for 2 h at room temperature. Primary antibodies for phosphorylated (p) AKT(5473) (phosphorylated at serine 473), pAKT(T308) (phosphorylated at threonine 308) and for pS6RP(S235/236) (phosphorylated at serine 235/236) (commercially available from Cell Signaling Technology®, whose protocol was followed for the in-cell western assay, were diluted to the required concentration and added to the corresponding wells followed by overnight incubation at 4° C. Eu-labeled rabbit (PE) (Perkin-Elmer USA catalog #AD0106) secondary antibody was added and incubated for 2 h at room temperature. Delfia® enhancement solution (cat #1244-105, Perkin Elmer USA) was subsequently added to the plate before taking the reading at 615 nm with excitation wavelength of 340 nm, after which 0.5 μg/mL of Hoechst® 33258 dye (Catalog #86140-5, Sigma) was added to the plate and fluorescence emission was read at 460 nm with 355 nm excitation, to evaluate the correction factor. IC50 values were calculated using a sigmoidal dose-response curve fit in GraphPad Prism® v5 software.

mTOR kinase = target: T2, mTOR kinase (Homo sapiens, UniProt P42345); assay: mTOR kinase TR-FRET assay; type: biochemical; details: read-out: mTO R
T2 construct: purchased Millipore, USA
How it was run: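 Compounds preincubated 60 min with mTOR (5 ng) in HEPES pH 7.5, EGTA, MnCl2; ULight-p70 S6K Thr389 peptide (50 nM) and ATP (20 μM) then added, 60 min at room temperature. EDTA-stopped, Eu-anti-phospho antibody detection by TR-FRET (665/615 nm); IC50 from variable-slope sigmoidal fit.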

PC3 cells = assay: XTT assay for cell viability, PC3 cells; type: cell-based, human; details: Homo sapiens, PC-3, cell viability
How it was run: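 PC3 cells seeded at 1000 cells/well, grown 24 h, then exposed to serial dilutions of compound for 96 h. Viability read by XTT dye at 37° C, absorbance 465 nm. EC50 from sigmoidal dose-response fit.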

T1 sequence (P42336 whole entry): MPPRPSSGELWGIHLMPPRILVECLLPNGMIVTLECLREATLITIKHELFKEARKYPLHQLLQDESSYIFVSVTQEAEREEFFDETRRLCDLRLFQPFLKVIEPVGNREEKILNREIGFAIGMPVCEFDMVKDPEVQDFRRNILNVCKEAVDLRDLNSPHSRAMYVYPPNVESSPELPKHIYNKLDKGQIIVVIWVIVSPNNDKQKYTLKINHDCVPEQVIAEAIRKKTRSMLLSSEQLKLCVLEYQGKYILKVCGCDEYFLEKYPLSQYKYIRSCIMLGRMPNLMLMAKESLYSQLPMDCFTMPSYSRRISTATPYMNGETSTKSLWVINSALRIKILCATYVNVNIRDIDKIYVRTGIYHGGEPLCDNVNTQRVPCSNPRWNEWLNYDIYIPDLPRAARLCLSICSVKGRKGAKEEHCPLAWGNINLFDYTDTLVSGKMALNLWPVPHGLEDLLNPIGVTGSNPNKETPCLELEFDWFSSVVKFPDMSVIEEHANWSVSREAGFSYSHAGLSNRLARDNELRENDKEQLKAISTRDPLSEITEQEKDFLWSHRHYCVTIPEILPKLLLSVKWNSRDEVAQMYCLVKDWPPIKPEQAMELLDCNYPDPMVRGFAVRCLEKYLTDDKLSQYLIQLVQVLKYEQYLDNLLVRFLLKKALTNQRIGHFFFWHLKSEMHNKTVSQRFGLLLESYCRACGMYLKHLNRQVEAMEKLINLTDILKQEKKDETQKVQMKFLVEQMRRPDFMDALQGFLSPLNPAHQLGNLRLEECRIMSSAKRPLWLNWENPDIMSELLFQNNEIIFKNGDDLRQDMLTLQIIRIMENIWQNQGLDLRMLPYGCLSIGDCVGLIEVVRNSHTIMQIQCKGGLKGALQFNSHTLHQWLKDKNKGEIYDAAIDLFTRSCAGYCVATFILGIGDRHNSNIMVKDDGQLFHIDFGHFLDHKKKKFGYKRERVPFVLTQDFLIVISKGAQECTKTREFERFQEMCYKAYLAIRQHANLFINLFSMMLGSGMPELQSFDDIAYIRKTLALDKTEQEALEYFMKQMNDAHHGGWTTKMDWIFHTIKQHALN
T1 sequence (P27986 whole entry partner): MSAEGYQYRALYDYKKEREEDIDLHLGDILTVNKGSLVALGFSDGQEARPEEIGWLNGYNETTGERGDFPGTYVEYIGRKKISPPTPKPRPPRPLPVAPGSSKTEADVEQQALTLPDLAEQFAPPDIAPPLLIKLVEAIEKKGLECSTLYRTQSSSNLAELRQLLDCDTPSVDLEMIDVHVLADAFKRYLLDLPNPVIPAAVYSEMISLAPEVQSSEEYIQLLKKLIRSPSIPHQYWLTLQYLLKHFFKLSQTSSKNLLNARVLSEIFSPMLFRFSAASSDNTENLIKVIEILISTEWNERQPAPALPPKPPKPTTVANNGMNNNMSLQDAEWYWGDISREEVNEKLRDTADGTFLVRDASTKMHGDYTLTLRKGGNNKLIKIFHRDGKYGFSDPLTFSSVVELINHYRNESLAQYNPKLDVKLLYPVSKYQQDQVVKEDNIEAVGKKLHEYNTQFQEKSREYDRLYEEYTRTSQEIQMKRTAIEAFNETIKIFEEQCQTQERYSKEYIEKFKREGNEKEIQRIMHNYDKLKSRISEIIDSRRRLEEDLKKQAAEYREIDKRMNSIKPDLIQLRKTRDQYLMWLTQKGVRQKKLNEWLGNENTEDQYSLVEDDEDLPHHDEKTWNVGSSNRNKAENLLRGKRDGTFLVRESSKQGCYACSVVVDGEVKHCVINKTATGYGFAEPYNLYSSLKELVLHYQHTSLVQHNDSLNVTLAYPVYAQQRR

| IC50 [1] | IC50 [2] | IC50 (mTOR kinase) | IC50 (PC3 cells) | Compound |
| --- | --- | --- | --- | --- |
| < 50 nM | 100 to 500 nM | < 50 nM | < 100 nM | Cc1ccc(-c2ccc3c(N4CCOCC4)nc(-c4ccc(NC(=O)Nc5ccc(C(=O)N(C)C)cc5)cc4)nc3c2)o1 [Example 2, N,N-Dimethyl-4-(3-{4-[7-(5-methyl-furan-2-yl)-4-morpholin-4-yl-quinazolin-2-yl]-phenyl}-ureido)-benzamide] |
| < 50 nM | – | < 50 nM | 100 to 500 nM | CN(C)C(=O)c1ccc(NC(=O)Nc2ccc(-c3nc(N4CCOCC4)c4ccc(-c5ccco5)cc4n3)cc2)cc1 [Example 51, 4-{3-[4-(7-furan-2-yl-4-morpholin-4-yl-quinazolin-2-yl)-phenyl]-ureido}-N,N-dimethyl-benzamide] |
| < 50 nM | 501 to 5000 nM | < 50 nM | 201 to 10000 nM | CN(C)C(=O)c1ccc(NC(=O)Nc2ccc(-c3nc(N4CCOCC4)c4ccc(-c5cncnc5)cc4n3)cc2)c(F)c1 [Example 133, 3-fluoro-N,N-dimethyl-4-(3-(4-(4-morpholino-7-(pyrimidin-5-yl)quinazolin-2-yl)phenyl)ureido)-benzamide] |
| 50 to 200 nM | < 100 nM | < 50 nM | 201 to 10000 nM | CN(C)C(=O)c1ccc(NC(=O)Nc2ccc(-c3nc(N4CCOCC4)c4ccc(-c5cccnc5F)cc4n3)cc2)c(F)c1 [Example 146, 3-fluoro-4-(3-(4-(7-(2-fluoropyridin-3-yl)-4-morpholino-quinazolin-2-yl)phenyl)ureido)-N,N-dimethyl-benzamide] |
| < 50 nM | 501 to 5000 nM | < 50 nM | < 100 nM | CN(C)C(=O)c1ccc(NC(=O)Nc2ccc(-c3nc(N4CCOCC4)c4ccc(-c5cccnc5)cc4n3)cc2)c(F)c1 [Example 152, 3-fluoro-N,N-dimethyl-4-(3-(4-(4-morpholino-7-(pyridin-3-yl)quinazolin-2-yl)phenyl)ureido)-benzamide] |

| Compound | IC50 [1] | IC50 [2] | IC50 (mTOR kinase) | IC50 (PC3 cells) |
| --- | --- | --- | --- | --- |
| CN(C)C(=O)c1ccc(NC(=O)Nc2ccc(-c3nc(N4CCOCC4)c4ccc(-c5cncnc5)cc4n3)cc2)cc1 [Example 1, N,N-Dimethyl-4-(3-{4-[4-morpholin-4-yl-7-pyrimidin-5-yl-quinazolin-2-yl)-phenyl]-ureido}-benzamide] | < 50 nM | 100 to 500 nM | < 50 nM | 100 to 500 nM |
